Data from patent US9969742B2, “Imidazotriazinone compounds” (Ironwood Pharmaceuticals, Inc., priority 2012, dated 2018).
Like-named read-outs stand apart in the source and are kept apart here. Each block holds one molecule with its values, some of them ahead of it.

What was measured:
Assay type in all cases: biochemical
PDE1B = molecular target: T1, PDE1B (Homo sapiens, UniProt Q01064); test: Phosphodiesterase enzyme screening assay, PDE1B
T1 construct: purchased Reaction Biology Corporation, Malvern, Pa
Outline: (§1)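 Read-out was electrophoretic mobility-shift separation on chip of fluorescent cyclic nucleotide from 5′-AMP/5′-GMP, with inhibition or enhancement judged against control wells (quadruplicate means). Reactions lasted 1 h at RT in HEPES pH 7.5 buffer with MgCl2, DTT and Brij plus 4.0 μM cGMP substrate, then were halted with EDTA stop buffer.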

PDE9A2 = molecular target: T2, PDE9A2 (Homo sapiens, UniProt O76083); test: Phosphodiesterase enzyme screening assay, PDE9A2
T2 construct: purchased Reaction Biology Corporation, Malvern, Pa
Outline: as §1

PDE1A = molecular target: T3, PDE1A (Homo sapiens, UniProt P54750); test: Phosphodiesterase enzyme screening assay, PDE1A
T3 construct: purchased Reaction Biology Corporation, Malvern, Pa
Outline: as §1

[1] = ratio of IC50 values, value greater than 1 indicates greater selectivity for PDE9A2
[2] = Table 1, ratio of IC50 values, value greater than 1 indicates greater selectivity for PDE9A2
[3] = Table 1, 10 concentrations, 4.0 μM cGMP substrate, 1 hour at R.T., read-out: Band (PDE9A2 IC50)
[4] = ratio of IC50 values PDE1B vs PDE9A2, value greater than 1 indicates greater selectivity for PDE9A2
[5] = IC50 band, 4.0 μM cGMP substrate, 1 hour at R.T.
[6] = ratio of IC50 values PDE1A vs PDE9A2, value greater than 1 indicates greater selectivity for PDE9A2
[7] = ratio of IC50 values, PDE1B versus PDE9A2, value greater than 1 = greater selectivity for PDE9A2
[8] = Table 3, 4.0 μM cGMP substrate, 1 hour at R.T., read-out: Band (PDE9A2 IC50)
[9] = ratio of IC50 values, PDE1A versus PDE9A2, value greater than 1 = greater selectivity for PDE9A2
[10] = ratio of IC50 values PDE1B / PDE9A2, value greater than 1 = greater selectivity for PDE9A2
[11] = 4.0 μM cGMP substrate, 1 hour at R.T., read-out: Band (PDE9A2 IC50)
[12] = ratio of IC50 values PDE1A / PDE9A2, value greater than 1 = greater selectivity for PDE9A2
[13] = Table 2, ratio of IC50 values, value greater than 1 indicates greater selectivity for PDE9A2
[14] = Table 2, 10 concentrations, 4.0 μM cGMP substrate, 1 hour at R.T., read-out: Band (PDE9A2 IC50)

T2 sequence (O76083 1-533 isoform O76083-2): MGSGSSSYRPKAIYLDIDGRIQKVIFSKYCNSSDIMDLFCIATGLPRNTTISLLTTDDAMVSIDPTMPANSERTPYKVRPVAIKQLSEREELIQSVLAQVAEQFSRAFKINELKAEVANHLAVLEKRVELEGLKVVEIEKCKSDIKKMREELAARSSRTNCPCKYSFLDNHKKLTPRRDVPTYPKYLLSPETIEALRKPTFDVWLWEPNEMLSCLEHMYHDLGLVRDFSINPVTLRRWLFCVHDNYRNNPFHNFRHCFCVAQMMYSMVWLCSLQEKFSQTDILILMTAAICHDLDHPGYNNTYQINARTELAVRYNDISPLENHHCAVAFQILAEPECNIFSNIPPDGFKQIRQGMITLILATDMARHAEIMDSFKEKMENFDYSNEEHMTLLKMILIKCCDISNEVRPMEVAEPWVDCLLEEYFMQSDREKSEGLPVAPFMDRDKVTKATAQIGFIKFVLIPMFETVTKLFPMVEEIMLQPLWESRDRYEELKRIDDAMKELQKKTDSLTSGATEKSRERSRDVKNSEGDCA
T3 sequence (P54750 whole entry): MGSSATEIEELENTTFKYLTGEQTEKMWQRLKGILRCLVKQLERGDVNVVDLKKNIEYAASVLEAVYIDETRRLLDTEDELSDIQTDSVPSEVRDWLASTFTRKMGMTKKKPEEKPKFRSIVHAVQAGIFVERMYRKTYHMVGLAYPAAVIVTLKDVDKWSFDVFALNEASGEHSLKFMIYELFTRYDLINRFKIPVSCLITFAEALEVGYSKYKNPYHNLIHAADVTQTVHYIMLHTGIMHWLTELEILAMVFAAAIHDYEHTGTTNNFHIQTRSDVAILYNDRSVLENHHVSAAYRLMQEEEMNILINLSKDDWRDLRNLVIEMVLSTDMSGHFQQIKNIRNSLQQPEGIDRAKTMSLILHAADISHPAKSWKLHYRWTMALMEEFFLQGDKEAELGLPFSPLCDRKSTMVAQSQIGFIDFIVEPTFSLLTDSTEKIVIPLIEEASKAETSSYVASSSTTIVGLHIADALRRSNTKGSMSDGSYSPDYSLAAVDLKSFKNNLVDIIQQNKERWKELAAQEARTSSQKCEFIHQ
T1 sequence (Q01064 whole entry): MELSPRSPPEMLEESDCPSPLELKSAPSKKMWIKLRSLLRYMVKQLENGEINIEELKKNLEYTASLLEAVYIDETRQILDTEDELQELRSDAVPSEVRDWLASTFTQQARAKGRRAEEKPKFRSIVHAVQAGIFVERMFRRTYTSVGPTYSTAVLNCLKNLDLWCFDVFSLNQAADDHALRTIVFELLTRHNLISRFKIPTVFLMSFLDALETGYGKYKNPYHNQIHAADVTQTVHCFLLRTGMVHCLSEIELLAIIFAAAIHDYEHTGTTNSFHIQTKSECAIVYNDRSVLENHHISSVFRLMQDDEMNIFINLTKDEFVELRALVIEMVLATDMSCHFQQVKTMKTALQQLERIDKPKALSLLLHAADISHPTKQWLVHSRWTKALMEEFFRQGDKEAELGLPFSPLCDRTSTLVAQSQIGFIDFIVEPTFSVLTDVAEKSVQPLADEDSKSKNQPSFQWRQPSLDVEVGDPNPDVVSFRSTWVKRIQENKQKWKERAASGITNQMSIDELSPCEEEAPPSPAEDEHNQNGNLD

- PDE1B selectivity (versus PDE9A2) (PDE1B; [1]): 63
- IC50 (PDE9A2; read-out: Band (PDE9A2 IC50)): < 1000 nM
- PDE1A selectivity (versus PDE9A2) (PDE1A; [1]): 35
SMILES: CC1CN(Cc2ncon2)CC1c1nn2c(C3CCOCC3)ncc2c(=O)[nH]1 (single isomer, unassigned; (+)) [(+)-2-((3,4-trans)-1-((1,2,4-oxadiazol-3-yl)methyl)-4-methylpyrrolidin-3-yl)-7-(tetrahydro-2H-pyran-4-yl)imidazo[5,1-f][1,2,4]triazin-4(3H)-one]

- PDE1B selectivity (versus PDE9A2) (PDE1B; [1]): 1528
- IC50 (PDE9A2; read-out: Band (PDE9A2 IC50)): < 1000 nM
- PDE1A selectivity (versus PDE9A2) (PDE1A; [1]): 650
SMILES: CC1CN(Cc2ncno2)CC1c1nn2c(C3CCOCC3)ncc2c(=O)[nH]1 (single isomer, unassigned; (+)) [(+)-2-((3,4-trans)-1-((1,2,4-oxadiazol-5-yl)methyl)-4-methylpyrrolidin-3-yl)-7-(tetrahydro-2H-pyran-4-yl)imidazo[5,1-f][1,2,4]triazin-4(3H)-one]

- PDE1B selectivity (versus PDE9A2) (PDE1B; [2]): 670
- IC50 (PDE9A2; [3]): < 1000 nM
- PDE1A selectivity (versus PDE9A2) (PDE1A; [2]): 487
SMILES: Cc1cc(CN2CC(C)C(c3nn4c(C5CCOCC5)ncc4c(=O)[nH]3)C2)n(C)n1 (single isomer, unassigned; (+)) [(+)-2-((3,4-trans)-1-((1,3-dimethyl-1H-pyrazol-5-yl)methyl)-4-methylpyrrolidin-3-yl)-7-(tetrahydro-2H-pyran-4-yl)imidazo[5,1-f][1,2,4]triazin-4(3H)-one]

- PDE1B selectivity (versus PDE9A2) (PDE1B; [4]): 250
- IC50 (PDE9A2; [5]): < 1000 nM
- PDE1A selectivity (versus PDE9A2) (PDE1A; [6]): 90
SMILES: CC1CN(Cc2nc3ccccc3[nH]2)CC1c1nn2c(C3CCC(F)(F)CC3)ncc2c(=O)[nH]1 (single isomer, unassigned; (+)) [(+)-2-((3,4-trans)-1-((1H-benzo[d]imidazol-2-yl)methyl)-4-methylpyrrolidin-3-yl)-7-(4,4-difluorocyclohexyl)imidazo[5,1-f][1,2,4]triazin-4(3H)-one]

- PDE1B selectivity (versus PDE9A2) (PDE1B; [4]): 2500
- IC50 (PDE9A2; [5]): < 1000 nM
- PDE1A selectivity (versus PDE9A2) (PDE1A; [6]): 1438
SMILES: Cc1cc(F)ccc1-c1ncc2c(=O)[nH]c(C3CN(Cc4nc5ccccc5[nH]4)CC3C)nn12 (single isomer, unassigned; (+)) [(+)-2-((3,4-trans)-1-((1H-benzo[d]imidazol-2-yl)methyl)-4-methylpyrrolidin-3-yl)-7-(4-fluoro-2-methylphenyl)imidazo[5,1-f][1,2,4]triazin-4(3H)-one]

- PDE1B selectivity (versus PDE9A2) (PDE1B; [4]): 130
- IC50 (PDE9A2; [5]): < 1000 nM
- PDE1A selectivity (versus PDE9A2) (PDE1A; [6]): 89
SMILES: Cc1ccc(F)cc1-c1ncc2c(=O)[nH]c(C3CN(Cc4nc5ccccc5[nH]4)CC3C)nn12 (single isomer, unassigned; (+)) [(+)-2-((3,4-trans)-1-((1H-benzo[d]imidazol-2-yl)methyl)-4-methylpyrrolidin-3-yl)-7-(5-fluoro-2-methylphenyl)imidazo[5,1-f][1,2,4]triazin-4(3H)-one]

- PDE1B selectivity (versus PDE9A2) (PDE1B; ratio of IC50 values, PDE1B versus PDE9A2, value greater than 1 indicates greater selectivity for PDE9A2): 2990
- IC50 (PDE9A2; read-out: Band (PDE9A2 IC50)): < 1000 nM
- PDE1A selectivity (versus PDE9A2) (PDE1A; ratio of IC50 values, PDE1A versus PDE9A2, value greater than 1 indicates greater selectivity for PDE9A2): 1740
SMILES: Cc1ccccc1-c1ncc2c(=O)[nH]c(C3CN(Cc4nc5ccccc5[nH]4)CC3C)nn12 (single isomer, unassigned; (+)) [(+)-2-((3,4-trans)-1-((1H-benzo[d]imidazol-2-yl)methyl)-4-methylpyrrolidin-3-yl)-7-(o-tolyl)imidazo[5,1-f][1,2,4]triazin-4(3H)-one]

- PDE1B selectivity (versus PDE9A2) (PDE1B; [2]): 1920
- IC50 (PDE9A2; [3]): < 1000 nM
- PDE1A selectivity (versus PDE9A2) (PDE1A; [2]): 855
SMILES: CCc1ncc(CN2CC(C)C(c3nn4c(C5CCOCC5)ncc4c(=O)[nH]3)C2)cn1 (single isomer, unassigned; (+)) [(+)-2-((3,4-trans)-1-((2-ethylpyrimidin-5-yl)methyl)-4-methylpyrrolidin-3-yl)-7-(tetrahydro-2H-pyran-4-yl)imidazo[5,1-f][1,2,4]triazin-4(3H)-one]

- PDE1B selectivity (versus PDE9A2) (PDE1B; [7]): 607
- IC50 (PDE9A2; [8]): < 1000 nM
- PDE1A selectivity (versus PDE9A2) (PDE1A; [9]): 317
SMILES: COc1cc(CN2CC(C)C(c3nn4c(C5CCOCC5)ncc4c(=O)[nH]3)C2)ccn1 (single isomer, unassigned; (+)) [(+)-2-((3,4-trans)-1-((2-methoxypyridin-4-yl)methyl)-4-methylpyrrolidin-3-yl)-7-(tetrahydro-2H-pyran-4-yl)imidazo[5,1-f][1,2,4]triazin-4(3H)-one]

- PDE1B selectivity (versus PDE9A2) (PDE1B; [10]): 3650
- IC50 (PDE9A2; [11]): < 1000 nM
- PDE1A selectivity (versus PDE9A2) (PDE1A; [12]): 1210
SMILES: COc1ncc(CN2CC(C)C(c3nn4c(C5CCOCC5)ncc4c(=O)[nH]3)C2)cn1 (single isomer, unassigned; (+)) [(+)-2-((3,4-trans)-1-((2-methoxypyrimidin-5-yl)methyl)-4-methylpyrrolidin-3-yl)-7-(tetrahydro-2H-pyran-4-yl)imidazo[5,1-f][1,2,4]triazin-4(3H)-one]

- PDE1B selectivity (versus PDE9A2) (PDE1B; [1]): 68
- IC50 (PDE9A2; read-out: Band (PDE9A2 IC50)): < 1000 nM
- PDE1A selectivity (versus PDE9A2) (PDE1A; [1]): 51
SMILES: CC1CN(CC2CCC(F)(F)CC2)CC1c1nn2c(C3CCOCC3)ncc2c(=O)[nH]1 (single isomer, unassigned; (+)) [(+)-2-((3,4-trans)-1-((4,4-difluorocyclohexyl)methyl)-4-methylpyrrolidin-3-yl)-7-(tetrahydro-2H-pyran-4-yl)imidazo[5,1-f][1,2,4]triazin-4(3H)-one]

- PDE1B selectivity (versus PDE9A2) (PDE1B; [13]): 767
- IC50 (PDE9A2; [14]): < 1000 nM
- PDE1A selectivity (versus PDE9A2) (PDE1A; [13]): 947
SMILES: Cc1cc(C)nc(CN2CC(C)C(c3nn4c(C5CCOCC5)ncc4c(=O)[nH]3)C2)n1 (single isomer, unassigned; (+)) [(+)-2-((3,4-trans)-1-((4,6-dimethylpyrimidin-2-yl)methyl)-4-methylpyrrolidin-3-yl)-7-(tetrahydro-2H-pyran-4-yl)imidazo[5,1-f][1,2,4]triazin-4(3H)-one]

- PDE1B selectivity (versus PDE9A2) (PDE1B; [13]): 177
- IC50 (PDE9A2; [14]): < 1000 nM
- PDE1A selectivity (versus PDE9A2) (PDE1A; [13]): 117
SMILES: CC1CN(Cc2nccc(N(C)C)n2)CC1c1nn2c(C3CCOCC3)ncc2c(=O)[nH]1 (single isomer, unassigned; (+)) [(+)-2-((3,4-trans)-1-((4-(dimethylamino)pyrimidin-2-yl)methyl)-4-methylpyrrolidin-3-yl)-7-(tetrahydro-2H-pyran-4-yl)imidazo[5,1-f][1,2,4]triazin-4(3H)-one]

- PDE1B selectivity (versus PDE9A2) (PDE1B; [13]): 403
- IC50 (PDE9A2; [14]): < 1000 nM
- PDE1A selectivity (versus PDE9A2) (PDE1A; [13]): 229
SMILES: CC1CN(Cc2nccc(C3CC3)n2)CC1c1nn2c(C3CCOCC3)ncc2c(=O)[nH]1 (single isomer, unassigned; (+)) [(+)-2-((3,4-trans)-1-((4-cyclopropylpyrimidin-2-yl)methyl)-4-methylpyrrolidin-3-yl)-7-(tetrahydro-2H-pyran-4-yl)imidazo[5,1-f][1,2,4]triazin-4(3H)-one]

- PDE1B selectivity (versus PDE9A2) (PDE1B; [7]): 456
- IC50 (PDE9A2; [8]): < 1000 nM
- PDE1A selectivity (versus PDE9A2) (PDE1A; [9]): 466
SMILES: COc1ccnc(CN2CC(C)C(c3nn4c(C5CCOCC5)ncc4c(=O)[nH]3)C2)c1 (single isomer, unassigned; (+)) [(+)-2-((3,4-trans)-1-((4-methoxypyridin-2-yl)methyl)-4-methylpyrrolidin-3-yl)-7-(tetrahydro-2H-pyran-4-yl)imidazo[5,1-f][1,2,4]triazin-4(3H)-one]

- PDE1B selectivity (versus PDE9A2) (PDE1B; [10]): 184
- IC50 (PDE9A2; [11]): < 1000 nM
- PDE1A selectivity (versus PDE9A2) (PDE1A; [12]): 107
SMILES: CC1CN(Cc2ccc(Cl)cn2)CC1c1nn2c(C3CCOCC3)ncc2c(=O)[nH]1 (single isomer, unassigned; (+)) [(+)-2-((3,4-trans)-1-((5-chloropyridin-2-yl)methyl)-4-methylpyrrolidin-3-yl)-7-(tetrahydro-2H-pyran-4-yl)imidazo[5,1-f][1,2,4]triazin-4(3H)-one]

- PDE1B selectivity (versus PDE9A2) (PDE1B; [13]): 154
- IC50 (PDE9A2; [14]): < 1000 nM
- PDE1A selectivity (versus PDE9A2) (PDE1A; [13]): 95
SMILES: CC1CN(Cc2ncc(Cl)cn2)CC1c1nn2c(C3CCOCC3)ncc2c(=O)[nH]1 (single isomer, unassigned; (+)) [(+)-2-((3,4-trans)-1-((5-chloropyrimidin-2-yl)methyl)-4-methylpyrrolidin-3-yl)-7-(tetrahydro-2H-pyran-4-yl)imidazo[5,1-f][1,2,4]triazin-4(3H)-one]

- PDE1B selectivity (versus PDE9A2) (PDE1B; [13]): 670
- IC50 (PDE9A2; [14]): < 1000 nM
- PDE1A selectivity (versus PDE9A2) (PDE1A; [13]): 151
SMILES: CC1CN(Cc2ncc(C3CC3)cn2)CC1c1nn2c(C3CCOCC3)ncc2c(=O)[nH]1 (single isomer, unassigned; (+)) [(+)-2-((3,4-trans)-1-((5-cyclopropylpyrimidin-2-yl)methyl)-4-methylpyrrolidin-3-yl)-7-(tetrahydro-2H-pyran-4-yl)imidazo[5,1-f][1,2,4]triazin-4(3H)-one]

- PDE1B selectivity (versus PDE9A2) (PDE1B; [7]): 377
- IC50 (PDE9A2; [8]): < 1000 nM
- PDE1A selectivity (versus PDE9A2) (PDE1A; [9]): 273
SMILES: CC1CN(Cc2ccc(F)cn2)CC1c1nn2c(C3CCOCC3)ncc2c(=O)[nH]1 (single isomer, unassigned; (+)) [(+)-2-((3,4-trans)-1-((5-fluoropyridin-2-yl)methyl)-4-methylpyrrolidin-3-yl)-7-(tetrahydro-2H-pyran-4-yl)imidazo[5,1-f][1,2,4]triazin-4(3H)-one]
